Literature values, collected in patent publication US20210322342A1, “ENDOXIFEN FOR THE TREATMENT OF BIPOLAR I DISORDER” (Jina Pharmaceuticals, Inc., priority 2020, published 2021).

Tests used:
PKC = settings: compared to tamoxifen
[1] = for plasma levels of free thyroxin (fT4): use of antipsychotics

Row | Structure (SMILES) | potency in inhibiting the PKC activity (PKC) | haematological adverse effects ([1]; in vivo) | plasma levels of free thyroxin (fT4) [1]
1 | CC/C(=C(\c1ccc(O)cc1)c1ccc(OCCNC)cc1)c1ccccc1.O=C(O)CC(O)(CC(=O)O)C(=O)O [Endoxifen, (Z)—1-(4-Hydroxyphenyl)-1-{4-[2-(monomethylamino)ethoxy]phenyl}—2—pheny 1-1-butene citrate] | four-fold higher potency |  | 
2 | Cc1cc2c(s1)Nc1ccccc1N=C2N1CCN(C)CC1 [olanzapine] |  | causes neutropenia and thrombocytopenia | significantly lower
3 | OCCOCCN1CCN(C2=Nc3ccccc3Sc3ccccc32)CC1 [quetiapine] |  |  | significantly lower
